Test results: paper PMC7669657 (Nature chemical biology, 2020)

Columns and labels:
[1] = target: T1, NSD1 SET domain (Homo sapiens, UniProt Q96L73); assay type: binding; conditions: 150 μM 15N NSD1 SET, 1H-15N HSQC
T1 sequence (Q96L73 1852-2085): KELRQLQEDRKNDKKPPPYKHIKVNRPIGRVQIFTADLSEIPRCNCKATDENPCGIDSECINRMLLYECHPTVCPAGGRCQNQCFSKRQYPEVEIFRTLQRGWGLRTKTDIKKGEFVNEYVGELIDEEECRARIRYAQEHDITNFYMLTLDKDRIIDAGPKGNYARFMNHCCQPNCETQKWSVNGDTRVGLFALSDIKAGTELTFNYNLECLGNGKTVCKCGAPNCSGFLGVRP

[2] = target: T2, NSD1 SET domain (Homo sapiens, UniProt Q96L73); test: MS covalent engagement and kinetics, NSD1 SET; assay type: binding; conditions: 1 μM NSD1 SET, 50 μM compound, 18 h, 32 °C
T2 sequence (Q96L73 1852-2105): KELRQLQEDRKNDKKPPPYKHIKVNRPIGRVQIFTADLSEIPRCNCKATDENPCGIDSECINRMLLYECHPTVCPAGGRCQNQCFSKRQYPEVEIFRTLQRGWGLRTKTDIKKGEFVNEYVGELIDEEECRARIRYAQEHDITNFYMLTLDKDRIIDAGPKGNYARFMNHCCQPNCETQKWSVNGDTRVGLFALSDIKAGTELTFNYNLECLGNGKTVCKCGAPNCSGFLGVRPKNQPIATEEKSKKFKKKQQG

| covalent binding by MS [2] | Structure (SMILES) | chemical shift perturbations / binding by NMR [1] |
| --- | --- | --- |
| lack covalent binding | NC(=O)/C=C/c1cc(O)c2nc(N)sc2c1 [Compound 9] | only weakly interact |
| – | COc1cc(Br)cc2sc(N)nc12 [Compound 8] | less pronounced chemical shift perturbations |
